Biological target: GST tagged truncated human mutant G2019S LRRK2 (Homo sapiens (Human), UniProt Q5S007, G2019S)
Test: LRRK2 Km ATP LanthaScreen Assay
Type: biochemical
Conditions: G2019S LRRK2, 134 μM ATP (Km ATP), mean values
Procedure, shortened: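 Enzyme (GST-tagged, truncated) was preincubated with compound for 15 min at RT in 50 mM Tris pH 8.5, 10 mM MgCl2, 0.01% Brij-35, 1 mM EGTA, 2 mM DTT and 0.05 mM orthovanadate. Fluorescein-LRRKtide and 134 μM ATP (Km) were then added for 90 min. EDTA and Tb-anti-pERM antibody stopped the reaction; the TR-FRET 520/495 ratio gave 4-parameter IC50s, reported as mean pIC50.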

Sequence of GST tagged truncated human mutant G2019S LRRK2 (Q5S007 970-2527 G2019S): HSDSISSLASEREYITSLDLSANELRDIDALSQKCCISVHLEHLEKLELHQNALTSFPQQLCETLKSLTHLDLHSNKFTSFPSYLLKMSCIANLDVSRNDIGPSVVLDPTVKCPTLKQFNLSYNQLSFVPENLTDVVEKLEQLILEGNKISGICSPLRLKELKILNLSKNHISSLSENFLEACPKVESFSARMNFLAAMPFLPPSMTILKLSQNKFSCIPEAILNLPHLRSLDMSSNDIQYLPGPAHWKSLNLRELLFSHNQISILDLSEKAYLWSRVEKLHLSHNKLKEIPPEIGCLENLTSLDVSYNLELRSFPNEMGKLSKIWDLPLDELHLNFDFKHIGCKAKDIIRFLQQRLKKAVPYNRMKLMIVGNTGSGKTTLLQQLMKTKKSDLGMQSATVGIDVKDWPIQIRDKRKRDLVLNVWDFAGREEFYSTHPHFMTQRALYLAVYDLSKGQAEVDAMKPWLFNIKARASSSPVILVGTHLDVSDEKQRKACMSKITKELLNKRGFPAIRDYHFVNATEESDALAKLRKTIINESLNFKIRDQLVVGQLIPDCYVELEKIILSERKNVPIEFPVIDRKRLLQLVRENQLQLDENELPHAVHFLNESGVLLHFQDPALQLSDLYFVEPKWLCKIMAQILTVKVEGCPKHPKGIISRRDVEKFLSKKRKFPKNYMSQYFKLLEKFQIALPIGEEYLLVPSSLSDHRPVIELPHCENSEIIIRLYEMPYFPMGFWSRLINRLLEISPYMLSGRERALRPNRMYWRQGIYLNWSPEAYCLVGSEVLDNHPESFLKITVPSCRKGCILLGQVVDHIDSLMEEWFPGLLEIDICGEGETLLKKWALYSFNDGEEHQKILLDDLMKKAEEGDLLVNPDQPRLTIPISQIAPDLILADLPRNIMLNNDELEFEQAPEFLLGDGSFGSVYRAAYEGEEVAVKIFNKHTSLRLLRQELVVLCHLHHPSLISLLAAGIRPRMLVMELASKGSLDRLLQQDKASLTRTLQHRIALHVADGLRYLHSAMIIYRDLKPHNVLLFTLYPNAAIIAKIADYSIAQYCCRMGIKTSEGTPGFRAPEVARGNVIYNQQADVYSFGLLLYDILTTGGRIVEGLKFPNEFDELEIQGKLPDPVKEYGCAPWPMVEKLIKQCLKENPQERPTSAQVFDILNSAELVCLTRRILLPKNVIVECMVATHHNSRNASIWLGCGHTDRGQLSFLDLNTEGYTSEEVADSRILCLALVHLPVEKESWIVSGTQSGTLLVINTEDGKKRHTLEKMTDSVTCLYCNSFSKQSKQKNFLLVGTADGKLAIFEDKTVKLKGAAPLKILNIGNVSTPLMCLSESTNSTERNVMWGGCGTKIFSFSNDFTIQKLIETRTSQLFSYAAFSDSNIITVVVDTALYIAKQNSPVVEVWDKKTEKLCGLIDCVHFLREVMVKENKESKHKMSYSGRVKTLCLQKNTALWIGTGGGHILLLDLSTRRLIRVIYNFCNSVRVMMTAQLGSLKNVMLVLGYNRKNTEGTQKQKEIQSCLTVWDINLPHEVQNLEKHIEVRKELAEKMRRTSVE

Compound	LRRK2 pIC50
Cc1cc2cnc(Nc3cnn(C45CC(C4)C5)c3C)nc2cc1C1CCN(C2(C)COC2)CC1 [Ex-5.8, N-[1-(bicyclo[1.1.1]pentan-1-yl)-5-methyl-1H-pyrazol-4-yl]-6-methyl-7-[1-(3-methyloxetan-3-yl)piperidin-4-yl]quinazolin-2-amine]	>9.20
N#Cc1cc2cnc(Nc3cnn(C4CC4)c3Cl)nc2cc1C1CCN(C2COC2)CC1 [Ex-6.3, 2-((5-chloro-1-cyclopropyl-1H-pyrazol-4-yl)amino)-7-(1-(oxetan-3-yl)piperidin-4-yl)quinazoline-6-carbonitrile]	9.07
FC1COCC1N1CC[C@@H](c2cc3nc(Nc4cnn(C5CC5(F)F)c4Cl)ncc3cc2Cl)C(F)C1 (stereo partly shown) [Ex-7.1]	9.01
FC1COCC1N1CC[C@H](c2cc3nc(Nc4cnn(C5CC5(F)F)c4Cl)ncc3cc2Cl)C(F)C1 (stereo partly shown) [Ex-7.2]	>9.20
FC(F)(F)Cn1ncc(Nc2ncc3cc(Cl)c(C4CCN(C5COC5)CC4)cc3n2)c1Cl [Ex-8.1, 6-chloro-N-(5-chloro-1-(2,2,2-trifluoroethyl)-1H-pyrazol-4-yl)-7-(1-(oxetan-3-yl)piperidin-4-yl)quinazolin-2-amine]	>9.20
FC(F)n1ncc(Nc2ncc3cc(Cl)c(C4CCN(C5COC5)CC4)cc3n2)c1Cl [Ex-8.2, 6-chloro-N-[5-chloro-1-(difluoromethyl)-1H-pyrazol-4-yl]-7-[1-(oxetan-3-yl)piperidin-4-yl]quinazolin-2-amine]	8.83
Cc1nsc(Nc2ncc3cc(Cl)c(C4CCN(C5COC5)CC4)cc3n2)c1Cl [Ex-8.5, 6-chloro-N-(4-chloro-3-methyl-1,2-thiazol-5-yl)-7-[1-(oxetan-3-yl)piperidin-4-yl]quinazolin-2-amine]	>9.20
N#CCCN1CCC(c2cc3nc(Nc4cnn(C5CC5)c4Cl)ncc3cc2Cl)CC1 [Ex-8.6, 3-(4-{6-chloro-2-[(5-chloro-1-cyclopropyl-1H-pyrazol-4-yl)amino]quinazolin-7-yl}piperidin-1-yl)propanenitrile]	8.17
O=S1(=O)CC(N2CCC(c3cc4nc(Nc5cnn(C6CC6)c5Cl)ncc4cc3Cl)CC2)C1 [Ex-8.7, 3-(4-(6-chloro-2-((5-chloro-1-cyclopropyl-1H-pyrazol-4-yl)amino)quinazolin-7-yl)piperidin-1-yl)thietane 1,1-dioxide]	>9.20
Clc1cc2cnc(Nc3cnn(C4CC4)c3Cl)nc2cc1C1CCN(C2COC2)CC1 [Ex-8.8, 6-chloro-N-(5-chloro-1-cyclopropyl-1H-pyrazol-4-yl)-7-[1-(oxetan-3-yl)piperidin-4-yl]quinazolin-2-amine]	>9.20
CC1(n2ncc(Nc3ncc4cc(Cl)c(C5CCNCC5)cc4n3)c2Cl)CC1 [Ex-8.9, 6-chloro-N-[5-chloro-1-(1-methylcyclopropyl)-1H-pyrazol-4-yl]-7-(piperidin-4-yl)quinazolin-2-amine]	>9.20
CC1(N2CCC(c3cc4nc(Nc5cnn(C6CC6)c5Cl)ncc4cc3Cl)CC2)COC1 [Ex-8.10, 6-chloro-N-(5-chloro-1-cyclopropyl-1H-pyrazol-4-yl)-7-[1-(3-methyloxetan-3-yl)piperidin-4-yl]quinazolin-2-amine]	9.08
CN1CCC(c2cc3nc(Nc4cnn(C(C)(C)CO)c4Cl)ncc3cc2Cl)CC1 [Ex-8.11, 2-(5-chloro-4-{[6-chloro-7-(1-methylpiperidin-4-yl)quinazolin-2-yl]amino}-1H-pyrazol-1-yl)-2-methylpropan-1-ol]	8.91
CC1(n2ncc(Nc3ncc4cc(Cl)c(C5CCN(C6CS(=O)(=O)C6)CC5)cc4n3)c2Cl)CC1 [Ex-8.12, 3-(4-(6-chloro-2-((5-chloro-1-(1-methylcyclopropyl)-1H-pyrazol-4-yl)amino)quinazolin-7-yl)piperidin-1-yl)thietane 1,1-dioxide]	8.92
CC1(n2ncc(Nc3ncc4cc(Cl)c(C5CCN(CCC#N)CC5)cc4n3)c2Cl)CC1 [Ex-8.13, 3-[4-(6-chloro-2-{[5-chloro-1-(1-methylcyclopropyl)-1H-pyrazol-4-yl]amino}quinazolin-7-yl)piperidin-1-yl]propanenitrile]	>9.20
CN1CCC(c2cc3nc(Nc4cnn(C5(C)CC5)c4Cl)ncc3cc2Cl)CC1 [Ex-8.14, 6-chloro-N-[5-chloro-1-(1-methylcyclopropyl)-1H-pyrazol-4-yl]-7-(1-methylpiperidin-4-yl)quinazolin-2-amine]	>9.20
CC1(N2CCC(c3cc4nc(Nc5cnn(C6(C)CC6)c5Cl)ncc4cc3Cl)CC2)COC1 [Ex-8.15, 6-chloro-N-[5-chloro-1-(1-methylcyclopropyl)-1H-pyrazol-4-yl]-7-[1-(3-methyloxetan-3-yl)piperidin-4-yl]quinazolin-2-amine]	>9.20
[2H]C1([2H])OC([2H])([2H])C1N1CCC(c2cc3nc(Nc4cnn(C5CC5)c4Cl)ncc3cc2Cl)CC1 [Ex-8.16, 6-chloro-N-(5-chloro-1-cyclopropyl-1H-pyrazol-4-yl)-7-(1-(oxetan-3-yl-2,2,4,4-d4)piperidin-4-yl)quinazolin-2-amine]	9.18
COC1CC(Cn2ncc(Nc3ncc4cc(Cl)c(C5CCN(C6COC6)CC5)cc4n3)c2Cl)C1 (stereo not shown) [Ex-8.17, 6-chloro-N-{5-chloro-1-[(3-methoxycyclobutyl)methyl]-1H-pyrazol-4-yl}-7-[1-(oxetan-3-yl)piperidin-4-yl]quinazolin-2-amine]	>9.20
N#CC1(Cn2ncc(Nc3ncc4cc(Cl)c(C5CCN(C6COC6)CC5)cc4n3)c2Cl)CC1 [Ex-8.24, 1-{[5-chloro-4-({6-chloro-7-[1-(oxetan-3-yl)piperidin-4-yl]quinazolin-2-yl}amino)-1H-pyrazol-1-yl]methyl}cyclopropane-1-carbonitrile]	8.92
OC1(Cn2ncc(Nc3ncc4cc(Cl)c(C5CCN(C6COC6)CC5)cc4n3)c2Cl)CCC1 [Ex-8.26, 1-{[5-chloro-4-({6-chloro-7-[1-(oxetan-3-yl)piperidin-4-yl]quinazolin-2-yl}amino)-1H-pyrazol-1-yl]methyl}cyclobutan-1-ol]	8.78
CC1(N2CCC(c3cc4nc(Nc5cnn(C67CC(C6)C7)c5Cl)ncc4cc3Cl)CC2)COC1 [Ex-8.38, N-[1-(bicyclo[1.1.1]pentan-1-yl)-5-chloro-1H-pyrazol-4-yl]-6-chloro-7-[1-(3-methyloxetan-3-yl)piperidin-4-yl]quinazolin-2-amine]	>9.20
COCC12CC(n3ncc(Nc4ncc5cc(Cl)c(C6CCN(C7(C)COC7)CC6)cc5n4)c3Cl)(C1)C2 [Ex-8.39, 6-chloro-N-{5-chloro-1-[3-(methoxymethyl)bicyclo[1.1.1]pentan-1-yl]-1H-pyrazol-4-yl}-7-[1-(3-methyloxetan-3-yl)piperidin-4-yl]quinazolin-2-amine]	8.98
COC[C@]12C[C@](n3ncc(Nc4ncc5cc(Cl)c(C6CCN(C7(C)COC7)CC6)cc5n4)c3Cl)(C1)C2 [Ex-8.40]	>9.20
(3S,4S) or (3R,4R) 6-chloro-N-(5-chloro-1-cyclopropyl-1H-pyrazol-4-yl)-7-(3-fluoropiperidin-4-yl)quinazolin-2-amine [Ex-4.1]	9.08

Source: patent publication US12540131B2 (Merck Sharp & Dohme LLC, priority 2019, dated 2026)
